Reference: PMC8190080, “Tanshinones induce tumor cell apoptosis via directly targeting FHIT” (Scientific Reports, 2021)

What was measured:
FHIT [1] = molecular target: T1, FHIT (Homo sapiens, UniProt P49789); experiment: FHIT hydrolase activity detection assay (Ap3A, ADP-Glo); format: biochemical; conditions: 5 nM FHIT, 500 nM Ap3A, ADP production by ADP-Glo
T1 construct: GST (N, cleaved yes); made in house; host or cells: E. coli BL21 (DE3)
Procedure: 5 nM FHIT protein was mixed with series diluted compounds as indicated in assay buffer (20 mM Tris–HCl, 2 mM DTT, 5 mM MgCl2, pH7.5) in a final DMSO concentration of 1% in a total volume of 20 μL. The mixtures were incubated for 30 min at 25 °C, then 500 nM Ap3A was added. After incubation at 25 °C for 5 min, the production of ADP in the reaction system was detected by ADP-Glo reagent (V6930, Promega) according to the manufacturer’s protocol in 384-well. Luminescence was read by spark (TECAN), an integration time of 1 s per well. And the data were analyzed by GraphPad Prism 7.0.

FHIT (H96N) = molecular target: T2, FHIT (H96N) (Homo sapiens, UniProt P49789, H96N); experiment: Fluorescence polarization assay, FHIT H96N-ApppBODIPY binding inhibition; conditions: 5 µM FHIT (H96N), 1 µM ApppBODIPY
T2 construct: GST (N, cleaved yes); made in house; host or cells: E. coli BL21 (DE3)
Procedure: The binding of FHIT (H96N) to fluorescein-labeled substrates ApppBODIPY was analyzed by fluorescence polarization assay in 384-well format for dose–response curve studies using spark instrument (TECAN) according to the protocol reported before. And 5 µM FHIT (H96N) protein was incubated with 1 µM fluorescein-labeled substrates in buffer A (25 mM Tris–HCl, pH 7.5, 5 mM MgCl2 and 2 mM DTT) with series diluted inhibitors as indicated. Each sample was allowed to equilibrate in the solution for 30 min. After 30 min, the steady-state fluorescence anisotropy (mP) was measured. A second reading was taken after 10 min, to ensure that the mixture was well-equilibrated and stable. Less than 5% change was observed between 30 and 40 min measurements. The IC50 value was determined by fitting the binding curves using GraphPad Prism 7.0.

FHIT [2] = molecular target: T1, FHIT; experiment: MST assay of the binding between tanshinone compounds and FHIT; conditions: Fig. 4B, FHIT preparation not stated
Procedure: Ten million 293 cells overexpressing GFP-tagged FHIT or free GFP were lysed in 0.5 mL M-PER mammalian protein extraction reagent (Thermo Fisher Scientific). Cell lysates were diluted in PBS buffer to a final concentration at which the fluorescent signals of the GFP proteins were suitable for the detection of the Monolith NT.115 instrument (NanoTemper Technologies). A single point screening assay was developed against GFP-FHIT protein to find potential binding molecules from compound libraries (L1021,APExBIO). For binding affinity detection, a 10µL protein sample was mixed with 10µL ligand at various concentrations as indicated. And the purified proteins were labeled by Red- NHS kit in accordance with the manufacturer’s protocol (MO-L011, NanoTemper Technologies). Then the mixture solutions were loaded into NT.115 standard coated capillaries or premium coated capillaries (NanoTemper Technologies), and the MST measurements were performed at 25 °C. The fluorescence signal during the thermophoresis was monitored and the change in fluorescence was analyzed by software. The Kd was calculated by fitting a standard binding curve to the series diluted ligands. And data were analyzed by GraphPad Prism 7.0.

FHIT [3] = molecular target: T1, FHIT; experiment: Fluorescent thin layer enzyme assay with ApppBODIPY (FHIT); format: biochemical; conditions: 10 nM Fhit, 5 µM ApppBODIPY, TLC; read-out: IC50, FHIT hydrolase activity (TLC assay)
Procedure: Fluorescent substrates ApppBODIPY at 5 µM were incubated with purified Fhit protein 10 nM in reactions at 25 °C containing 20 mM Tris–HCl, pH7.5, 150 mM NaCl, and 5 mM MgCl2. Competitive compounds, when indicated at series concentrations, were mixed with a fluorescent substrate. Reaction samples (0.6µL) were spotted on silica TLC plates (MERCK) at 60–120 s intervals. Plates were air-dried and developed in 2-propanol:NH4OH:1,4-dioxane: H2O (50:35:8:7) as reported before. Developed plates were imaged by fluorescein blot (ChemiDoc, Bio-Rad).

WT HCT116 cells = experiment: Apoptosis detection by flow cytometry (Annexin V/PI), WT HCT116 cells; format: cell-based, human
Procedure: (§1) HCT116 cells treated with indicated compounds were digested with 0.25% trypsin (Gibco). The cells were harvested by centrifugation at 1000 rpm for 5 min. The trypsinization time should not be too long to prevent false positives. The cells were washed twice with pre-cooled PBS. The cells were resuspended with 1 × annexin-binding buffer and the cell density was adjusted to ~ 1 × 10^6 cells/ml. Then 5µL Alexa Fluor 488 annexin V and 1 µL 100 µg/mL PI working solution (V13241, Invitrogen) was added to each 100 µL cell suspension. The cells were incubated at room temperature in the dark for 15 min. After the incubation, 400 µL 1 × annexin-binding buffer was added to the cells, mixed gently, and kept the samples on ice. Analyze the stained cells by flow cytometry as soon as possible. The V-FITC positive and PI negative cells were recorded as apoptotic cells.

FHIT KO HCT116 cells = experiment: Apoptosis detection by flow cytometry (Annexin V/PI), FHIT KO HCT116 cells; format: cell-based, human; conditions: for apoptosis: KO cells
Source text: FHIT gene was deleted in HCT116 cells by CRISPR/Cas9 genome editing. A plasmid pL- CRISPR.EFS.GFP (#57,818, Addgene) encoding both the Cas9 protein and the sgRNA was used. The Cas9 sequence is coupled to a P2A site and EGFP. Expression of the Cas9 protein results in simultaneous expression of EGFP, allowing for the selection of positively transfected cells. Two sgRNA toward exon5 and exon6 of the FHIT gene, respectively, were designed by using the optimized CRISPR design online tool (http://crispr.cos.uni-heidelberg.de). The primers sequences of the sgRNA used were shown as below: sgRNA1 for exon5 forward, 5’[…]3’, reverse, 5’[…] GGACAC3’; sgRNA2 for exon6 forward, 5’[…]3’, reverse, 5’[…]3’. Plasmids containing the right insertion were then sequenced by Sangon Biotech Company (Shanghai, China). The two CRISPR/Cas9 plasmids were co-transfected into HCT116 cells as 1:1 using Lipofectamine3000 (Invitrogen). After 48 h, EGFP positive single cell was sorted into 96-well plates and the plates were left in the incubator for 7–14 days or until small colonies could be seen by the naked eye. Genomic DNA of each well was extracted by QuickExtract DNA Extraction Solution (Epicenter, Madison, WI) to do PCR identification. And the PCR products were then Sanger-sequenced to identify clones that would result in frameshifts and truncated protein products. Sequence alignment and genomic PCR primers were shown as below: forward, 5′[…]3′, revers, 5′[…]3′.
as §1, with “The cells were incubated at room temperature in the dark for 15 min. After the incubation, 400 µL 1 × annexin-binding buffer was added to the cells, mixed gently, and kept the samples on ice. Analyze the stained cells by flow cytometry as soon as possible.” left out

HCT116 cells [4] = experiment: CCK-8 assay for cell inhibitory rate; format: cell-based, human; conditions: WT HCT116 cells, 2 µM
Procedure: The CCK-8 (Cell-Counting Kit-8) assay was used to detect the cells’inhibitory rate following the manufacturer’s protocol (APExBIO). Cells were seeded into 96-well plates at the density of 4 × 10^3(cells/well) overnight at 37 °C. After that, the culture medium was removed and the cells were treated with different concentrations of TSA (0, 1, 2, 5, 10 µM) or STS (0, 10, 25, 50, 100 µM) for 24 h, 48 h, 72 h respectively. Then 10 μL CCK-8 reagent was added into each well and incubated for another 2 h, OD450 was measured by a microplate reader (spark, TECAN).

HCT116 cells [5] = experiment: Colony formation assay; format: cell-based, human; conditions: 1 µM, 14 days
Procedure: ENPP1 hydrolase activity detection assay
ENPP1 protein (4ng/µl) was mixed with series diluted compounds as indicated in assay buffer (50mM Tris-HCl, 2mM CaCl2, 2mM MgCl2, pH9.0) in a final DMSO concentration of 1% in a total volume of 20μL. The mixtures were incubated for 30min at 25°C, then 4µM Ap3A was added. After incubation at 25°C for 10min, ENPP1 should be inactivated at 85°C for 5min.
Then the production of ADP in the reaction system was detected by ADP-Glo reagent (V6930, Promega) according to the manufacturer’s protocol in 384-well. Luminescence was read by spark (TECAN), an integration time of 1 second per well. And the data were analyzed by […]
Fluorescent thin layer enzyme assay for ENPP1
Small molecules, when indicated at series concentrations, were mixed with 2.5µM the fluorescent substrate ApppBODIPY. Then, 10nM purified ENPP1 protein was added to the reaction system at 25°C containing 50mM Tris-HCl pH9.0, 2mM CaCl2, 2mM MgCl2. Reaction samples (0.6µL) were spotted on silica TLC plates (Merck) at 60–120s intervals. Plates were air-dried and developed in 2-propanol:NH4OH:1,4-dioxane: H2O (50:35:8:7) as reported before. Developed plates were imaged by fluorescein blot (ChemiDoc, Bio-rad).
Colony formation assay was performed as described before. Briefly, ~200/well single cells were planted into 6-well plate. […]

T1 sequence (P49789 whole entry): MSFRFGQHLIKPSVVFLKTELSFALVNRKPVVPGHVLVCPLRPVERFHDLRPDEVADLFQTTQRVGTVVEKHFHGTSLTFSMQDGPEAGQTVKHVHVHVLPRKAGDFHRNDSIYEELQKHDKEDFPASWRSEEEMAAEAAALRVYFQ
T2 sequence (P49789 whole entry H96N): as the sequence (P49789 whole entry) above, with H96N counted along it

Cc1ccc(C(=O)Nc2ccc(S(=O)(=O)O)c3cc(S(=O)(=O)O)cc(S(=O)(=O)O)c23)cc1NC(=O)c1cccc(NC(=O)Nc2cccc(C(=O)Nc3cc(C(=O)Nc4ccc(S(=O)(=O)O)c5cc(S(=O)(=O)O)cc(S(=O)(=O)O)c45)ccc3C)c2)c1 [suramin]
IC50 (FHIT [1]): 260 ± 80 nM | IC50 (FHIT (H96N)): 2600 ± 44 nM

C[C@H]1COC2=C1C(=O)C(=O)c1c2ccc2c1CCCC2(C)C [CST, Cryptotanshinone]
Kd (FHIT [2]): 123 ± 31.7 nM | IC50 (FHIT [3]): 4000 to 6000 nM

Cc1coc2c1C(=O)C(=O)c1c-2ccc2c(C)cccc12 [TanI, tanshinone I]
Kd (FHIT [2]): 466 ± 60 nM | IC50 (FHIT [3]): 4000 to 6000 nM | apoptosis (WT HCT116 cells; 10 µM): 31.66% | apoptosis (FHIT KO HCT116 cells; 10 µM): 12.7%

Cc1coc2c1C(=O)C(=O)c1c-2ccc2c1CCCC2(C)C [TSA, Tanshinone IIA]
Kd (FHIT [2]): 112 ± 27.3 nM | IC50 (FHIT [3]): 4000 to 6000 nM | growth of HCT116 cells (CCK8) (HCT116 cells [4]): significantly inhibits the growth | colony formation of HCT116 cells (HCT116 cells [5]): clearly abolished the colony formation | apoptosis rate (WT HCT116 cells; 5 µM, 24 h): 13.5% | apoptosis rate (FHIT KO HCT116 cells; FHIT KO cells, 5 µM, 24 h): 4.9%

CC[C@@]1(O)C(=O)OCc2c1cc1n(c2=O)Cc2cc3ccccc3nc2-1 [CPT, camptothecin]
apoptosis (WT HCT116 cells; 1 µM): 24.9% | apoptosis (FHIT KO HCT116 cells; 1 µM): 5.3%
